Data reported in PubChem BioAssay (NCI).
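A five-concentration, 48-hour dose response in 96-well plates underlies each endpoint, interpolated linearly between surrounding concentrations. GI50 marks 50% less growth. TGI: total growth inhibition.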

What was measured:
Assay in all cases: inhibition of tumour cell growth, NCI panel, 48 h
SR leukemia = test system: SR leukemia
TK-10 renal = test system: TK-10 renal
SNB-75 CNS = test system: SNB-75 CNS
OVCAR-3 ovarian = test system: OVCAR-3 ovarian
K-562 leukemia = test system: K-562 leukemia
UACC-257 melanoma = test system: UACC-257 melanoma
SK-MEL-2 melanoma = test system: SK-MEL-2 melanoma
SF-295 CNS = test system: SF-295 CNS
MOLT-4 leukemia = test system: MOLT-4 leukemia
786-0 renal = test system: 786-0 renal

Structure (SMILES)	GI50 (SR leukemia)	TGI (SR leukemia)	GI50 (TK-10 renal)	TGI (TK-10 renal)	GI50 (SNB-75 CNS)	TGI (SNB-75 CNS)	GI50 (OVCAR-3 ovarian)	TGI (OVCAR-3 ovarian)	GI50 (K-562 leukemia)	TGI (K-562 leukemia)	GI50 (UACC-257 melanoma)	TGI (UACC-257 melanoma)	GI50 (SK-MEL-2 melanoma)	TGI (SK-MEL-2 melanoma)	GI50 (SF-295 CNS)	TGI (SF-295 CNS)	GI50 (MOLT-4 leukemia)	TGI (MOLT-4 leukemia)	GI50 (786-0 renal)	TGI (786-0 renal)
Fc1ccc(-c2ncn(C3CCNCC3)c2-c2ccnc(Oc3ccc4c(c3)OCO4)n2)cc1	13.6 µM	> 25 µM	> 25 µM	> 25 µM	> 16.1 µM	> 25 µM	> 25 µM	> 25 µM	> 23.1 µM	> 25 µM	10.5 µM	> 25 µM	> 25 µM	> 25 µM	> 20.1 µM	> 25 µM	> 25 µM	> 25 µM	> 23.8 µM	> 25 µM
O=S(=O)(O)O		> 1810 µM		2160 µM		2290 µM		1770 µM		1230 µM		1990 µM		1450 µM		2060 µM		1680 µM		1490 µM
CCCn1c(SCCSc2c3ccccc3c(-c3nc(F)nc(F)n3)n2CCC)c2ccccc2c1-c1nc(F)nc(F)n1		60.4 µM		> 100 µM		> 100 µM		> 100 µM		> 100 µM		> 100 µM		> 100 µM		> 100 µM		> 100 µM		> 100 µM
CC1=CC2C(C(O)CC3(C)C2CC(C)C32OCOC23COCO3)C2(C)C/C(=C/O)C(=O)C=C12 (centres undefined)	2.11 µM	4.45 µM	1.91 µM	3.59 µM	1.63 µM	3.03 µM	2.05 µM	3.59 µM	2.09 µM	5.73 µM	1.82 µM	3.86 µM	1.97 µM	3.8 µM	2.22 µM	5.34 µM	1.97 µM	4.9 µM	1.83 µM	3.55 µM
COc1ccc(/C=C(/c2ccccc2)[N+](=O)[O-])c(OC)c1	0.641 µM	16.2 µM	2.24 µM	4.18 µM	0.363 µM	1.84 µM	1.69 µM	3.09 µM	0.494 µM	38.2 µM	1.55 µM	3.38 µM	1.91 µM	5.28 µM	1.97 µM	3.86 µM	2.14 µM	6.77 µM	1.62 µM	3.16 µM
C=C1C(=O)O[C@H]2[C@H]1CC/C(COC(=O)CCCCCC(=O)OC/C1=C/CC[C@@]3(C)O[C@H]3[C@H]3OC(=O)C(=C)[C@@H]3CC1)=C\CC[C@@]1(C)O[C@@H]21	0.336 µM	5.58 µM	2.58 µM	5.7 µM	3.05 µM	29.6 µM	1.11 µM	2.38 µM	1.18 µM	10.2 µM	1.93 µM	5.63 µM	5.17 µM	21.2 µM	4.09 µM	16.5 µM	0.633 µM	4.1 µM	1.09 µM	2.49 µM
C=CC(=O)N1C/C(=C\c2ccc(Cl)c(Cl)c2)C(=O)/C(=C/c2ccc(Cl)c(Cl)c2)C1		0.0648 µM		2.57 µM		0.676 µM		0.219 µM		0.28 µM		1.57 µM		1.43 µM		0.891 µM		0.38 µM		0.194 µM
CCCCNNC(=O)c1ccc(Br)cc1	2.76 µM	> 50 µM	1.31 µM	12.2 µM	1.83 µM	> 50 µM	5.26 µM	> 50 µM	2.02 µM	> 50 µM	0.639 µM	7.34 µM	1.83 µM	> 39.9 µM	2.54 µM	14.7 µM	2.51 µM	> 50 µM	11.8 µM	> 50 µM
COc1ccc2c(c1)[n+](=O)c(C(=O)c1cccs1)c(C(F)(F)F)n2[O-]	0.775 µM	> 50 µM	1.07 µM	8.77 µM	9.11 µM	> 50 µM	2.09 µM	11.3 µM	2.56 µM	> 50 µM	8.66 µM	42 µM	10.8 µM	> 50 µM	2.89 µM	16.5 µM	24.9 µM	> 50 µM	17 µM	> 50 µM
CC(C)N(C(=O)c1cccc(C(=O)N(C(C)C)C(C)C)c1)C(C)C		> 100 µM		> 100 µM		> 100 µM		> 100 µM		> 100 µM		> 100 µM		> 100 µM		> 100 µM		> 100 µM		> 100 µM
COc1ccc([C@H](CC(=O)O)N2CCN(CCCc3ccc4c(n3)NCCC4)C2=O)cn1	> 100 µM	> 100 µM	0.0167 µM	0.0795 µM	0.0112 µM	0.0278 µM	> 100 µM	> 100 µM	> 80.8 µM	> 100 µM		> 100 µM	0.0331 µM	0.237 µM	47.6 µM	> 100 µM	> 100 µM	> 100 µM	0.346 µM	> 100 µM
CN(C)C(=O)Nc1nc2cc(Cl)c(Cl)cc2[nH]1	0.222 µM		4.71 µM	> 100 µM	3.08 µM	> 35.2 µM	0.393 µM	1.94 µM	0.41 µM	> 33.8 µM	> 100 µM	> 100 µM	4.55 µM	> 49.1 µM	0.603 µM	39.1 µM	1.01 µM	> 70.4 µM	1.21 µM	> 100 µM
C/C(=C\c1ccn(-c2ccccc2N)n1)[C@@H]1C[C@@H]2O[C@]2(C)CCC[C@H](C)[C@H](O)[C@@H](C)C(=O)C(C)(C)[C@@H](O)CC(=O)O1	0.0267 µM	> 50 µM	0.143 µM	> 50 µM	0.00907 µM	0.186 µM	0.0177 µM	0.457 µM	0.0268 µM	> 50 µM		> 50 µM	0.0819 µM	> 50 µM	0.0797 µM	> 50 µM	0.0341 µM	> 42.2 µM	0.0938 µM	> 42.6 µM
CCCCCCCCCCCC1=NC(C)(C)CN1C(C)(C)CO	3.07 µM	12.5 µM	1.94 µM	3.61 µM	2.3 µM	7.12 µM	2.05 µM	6.2 µM	1.84 µM	4.38 µM	1.65 µM	3.28 µM	2.12 µM	3.88 µM	2.04 µM	4.29 µM	2.79 µM	8.66 µM	1.93 µM	3.89 µM
O=c1c2c([nH]c3nccn13)CCC2		> 10 µM		> 10 µM		> 10 µM		> 10 µM		> 10 µM		> 10 µM		> 10 µM		> 10 µM		> 10 µM		> 10 µM
O=[N+]([O-])c1cccc(/C=N/NC2=CS(=O)(=O)C=C2)c1		> 100 µM		> 100 µM		> 100 µM		> 100 µM		> 100 µM		> 100 µM		> 100 µM		> 100 µM		> 100 µM		> 100 µM
CN(C)c1ccc(Nc2c3ccccc3nc3ccccc23)cc1	0.297 µM	1.35 µM	0.937 µM	4.19 µM	0.99 µM	4.09 µM	1.22 µM	3.22 µM	0.847 µM	7.83 µM	0.987 µM	2.65 µM	0.821 µM	2.83 µM	0.579 µM	2.75 µM	0.357 µM	5.18 µM	1.29 µM	3.13 µM
COC(=O)c1cc(-c2ccccc2)[nH]c1N/N=C/c1c(Cl)cccc1Cl	0.429 µM	> 100 µM	0.392 µM	2.4 µM	0.215 µM	2.43 µM	0.17 µM	0.356 µM	0.729 µM	> 100 µM	3.58 µM	41.3 µM	0.615 µM	17.2 µM	0.195 µM	0.92 µM	0.437 µM	> 100 µM	0.41 µM	8.39 µM
Nc1ccn(C2CC(F)C(CO)O2)c(=O)n1 (centres undefined)	> 100 µM	> 100 µM	> 100 µM	> 100 µM	> 100 µM	> 100 µM	> 100 µM	> 100 µM	> 100 µM	> 100 µM	> 100 µM	> 100 µM	> 100 µM	> 100 µM	> 100 µM	> 100 µM	> 100 µM	> 100 µM	> 100 µM	> 100 µM
C[N+]1=c2c3cccc4cccc(c(=O)n2CC1)c43		9.59 µM		38.8 µM		45 µM		79.8 µM		47.7 µM		30 µM		34.8 µM		56.1 µM		10.6 µM		> 100 µM
COc1ccc(-c2c(C)c(C(=O)O)nc(-c3ccc4c(O)c(OC)c5c(c4n3)=NC(C)(C)N=5)c2N)c(O)c1OC		1.94 µM		72.7 µM		11.4 µM		43.2 µM		47.9 µM		98.4 µM		41.4 µM		38.6 µM		29.7 µM		31.6 µM
CCOc1ccc2c(-c3ccnc(Nc4cc(OC)cc(C(F)(F)F)c4)n3)cnn2n1	1.32 µM	> 25 µM	> 16.3 µM	> 25 µM	15.1 µM	> 25 µM	6.2 µM	> 25 µM	1.97 µM	> 25 µM	> 25 µM	> 25 µM	> 25 µM	> 25 µM	> 14.6 µM	> 25 µM	> 25 µM	> 25 µM	> 13.3 µM	> 25 µM
C[C@H]1[C@H](C)N1CC(O)Cn1ccnc1[N+](=O)[O-] (some centres undefined)		> 100 µM		> 100 µM		> 100 µM		> 100 µM		> 100 µM		> 100 µM		> 100 µM		> 100 µM		> 100 µM		> 100 µM
CN1C(=O)c2ccc3ccccc3c2C1=O		> 100 µM		> 100 µM		> 100 µM		> 100 µM		> 100 µM		> 100 µM		> 100 µM		> 100 µM		> 100 µM		> 100 µM
COc1cc(/C=C/c2ccc(C)cc2)cc(OC)c1OC		16.6 µM		18 µM		8.05 µM		6.93 µM		> 100 µM		31.5 µM		> 31.6 µM		6.53 µM		25.6 µM		36.6 µM
COc1ccc(C(=O)Cn2c(C(=O)c3ccccc3)nc3ccccc32)cc1	0.763 µM		11 µM	> 100 µM	4.61 µM	> 100 µM	2.59 µM	> 21.6 µM	0.54 µM	> 100 µM	> 100 µM	> 100 µM		> 100 µM	3.19 µM	> 100 µM	1.87 µM	> 100 µM	9.31 µM	> 100 µM
O=C(O)C(Cc1cnc[nH]1)N1C(=O)c2ccccc2C1=O (centres undefined)		> 100 µM		> 100 µM		> 100 µM		> 100 µM		> 100 µM		> 100 µM		> 100 µM		98.5 µM		> 100 µM		> 100 µM
Cc1cn2c(/C=C3/C(=O)Nc4c3ccc3ccccc43)c(C(F)(F)F)nc2s1	0.238 µM	26.4 µM	12.6 µM	> 100 µM	0.582 µM	> 100 µM	0.381 µM	10.2 µM	0.483 µM	14.1 µM	> 100 µM	> 100 µM	1.06 µM	> 100 µM	0.494 µM	> 100 µM	2.7 µM	> 100 µM	1.49 µM	39 µM
CCOC(=O)NC(=O)c1cn(CCN2CCN(C(=O)CNC(=O)CNC(=O)Cn3cc(C(=O)NC(=O)OCC)c(=O)[nH]c3=O)CC2)c(=O)[nH]c1=O		> 100 µM		> 100 µM		> 100 µM		> 100 µM		> 100 µM		> 100 µM		> 100 µM		> 100 µM		> 100 µM		> 100 µM
O=C(/C=C(\O)C(=O)O)/C=C(\O)c1ccccc1	> 1 µM	> 100 µM	> 1 µM	> 100 µM	> 1 µM	> 54.9 µM	> 1 µM	> 46.4 µM	> 1 µM	> 100 µM	> 1 µM	> 100 µM	> 1 µM	> 100 µM		> 100 µM	> 1 µM	> 100 µM	> 1 µM	> 100 µM
